This note sets out measurements from patent publication US20040241098A1, “Fungicidal mixture containing arylamidine derivatives” (priority 2001, published 2004).

Assay [1] relates to Wheat powdery mildew (Erysiphe graminis). The experiment in a line: open field trial on wheat, powdery mildew. It counts as in vivo. The following applies: natural contamination, measured 59 days after the application. As for the experimental part:
(§1) They are intended to give an illustration of the efficacy of the compositions according to the invention on cereal diseases, in particular the compositions combining compound (A), having the chemical name N-ethyl-N-methyl-N′-[4-(chloro-3-trifluoromethylphénoxy)-2,5-xylyl]formamidine, with fungicidal compounds of the triazole and morpholine type. The trials on cereals were carried out in an open field.
(§2) The objective of these field trials is therefore to test the efficacy of compounds (A) of formula (I), in particular N-ethyl-N-methyl-N′-[4-(chloro-3-trifluoromethylphenoxy)-2,5-xylyl]formamidine, alone at 125 g/ha and combined with 2 fungicides which are commercially available: fluquinconazole (100 g/ha) and fenpropimorph (750 g/ha) representing 2 classes of fungicidal compounds. Powdery mildew, brush rust and Septoria disease mycosphaerella graminicola (Septoria tritici) are the principal diseases treated.
The products tested are therefore
N-ethyl-N-methyl-N′-[4-(chloro-3-trifluorométhylphénoxy)-2,5-xylyl]-formamidine as compound (A) at 125 g/ha as an EC type formulation at 100 g/l, fluquinconazole as compound (B) at 100 g/ha as a formulation at 100 g/l, fenpropimorph as another compound (B) at 750 g/ha at 750 g/l, compound (A) and fluquinconazole combination at 125+100 g/ha as a fresh preparation, compound (A) and fenpropimorph combination at 125+750 g/ha, also as a fresh preparation, epoxyconazole+kresoxim-methyl at 125+125 g/ha on the 3 diseases, quinoxyfen at 150 g/ha on powdery mildew.
(§3) Each trial comprises 3 repeats and untreated control plots are included in the experimental design in order to measure the severity of the diseases.
All the trials are conducted under natural contamination conditions. The equipment for application is a constant compressed air pressure back sprayer. The spray nozzles have slits. […]

The test system of assay [2] is powdery mildew, brown rust and Septoria disease. The experiment in a line: open field trials on cereals, conclusion over the 3 diseases. It counts as in vivo. As for the experimental part: as §1, §2, §3
All the trials are conducted under natural contamination conditions. The equipment for application is a constant compressed air pressure back sprayer. The spray nozzles have slits.
The efficacy results are obtained from controls carried out in the field: […]

For the compound `O=c1c2cc(F)ccc2nc(-n2cncn2)n1-c1ccc(Cl)cc1Cl` [Fluquinconazole, fluquinconazole], in assay [1], the “efficacy / persistence of activity on wheat powdery mildew” value (“efficacy / persistence of activity” below) is listed as “no longer have an activity”.
On to `Fc1ccc(Oc2ccnc3cc(Cl)cc(Cl)c23)cc1` [Quinoxyfen, quinoxyfen], for which the “efficacy / persistence of activity” value in assay [1] is given as “low but significant efficacy”.
`CCN(C)C=Nc1cc(C)c(Oc2ccc(Cl)c(C(F)(F)F)c2)cc1C` [compound (A), N-ethyl-N-methyl-N′-[4-(chloro-3-trifluoromethylphénoxy)-2,5-xylyl]formamidine]: the “effect on persistence of activity of compounds (B)” value in assay [2] (3 major cereal diseases: powdery mildew, brown rust and Septoria disease) is “significantly improve the persistence of activity of compounds (B) fluquinconazole and fenpropimorph”. The persistence of activity result in assay [2] (compound alone) is reported as “not very persistent by itself”.
Take `CC(Cc1ccc(C(C)(C)C)cc1)CN1C[C@@H](C)O[C@@H](C)C1` (some centres unmarked) [fenpropimorph]: the “efficacy / persistence of activity” value in assay [1] is “no longer have an activity”.
